# Results published in US12077503B2, “Substituted cyclic amides and their use as herbicides” (FMC CORPORATION, priority 2015, dated 2024).
# Read-outs that look alike come from different tables or passages of the source.
# Tests used:
# Experiment in all cases: Test A preemergence
# Assay type in all cases: in vivo
# [1] = test system: ryegrass, Italian (Italian ryegrass, Lolium multiflorum); details: Lolium multiflorum, pre-emergence, 240 h; for pest or weed control at 125 g/ha: 125 g ai/ha; for pest or weed control at 500 g/ha: 500 g ai/ha
# Procedure, shortened: (§1)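 Treatment is preemergence as a directed soil spray after planting, or postemergence at the one- to two-leaf stage, with test chemical in a non-phytotoxic solvent mixture plus surfactant. Plants stay in the greenhouse about 10 d before visual injury scoring on a 0 to 100 scale versus untreated controls.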
# Kochia (Kochia scoparia) = details: Bassia scoparia, pre-emergence, 240 h; for pest or weed control at 125 g/ha: 125 g ai/ha; for pest or weed control at 500 g/ha: 500 g ai/ha
# Procedure, shortened: as §1
# [2] = test system: ragweed (common ragweed, Ambrosia elatior); details: Ambrosia artemisiifolia, pre-emergence, 240 h; for pest or weed control at 125 g/ha: 125 g ai/ha; for pest or weed control at 500 g/ha: 500 g ai/ha
# Procedure, shortened: as §1
# [3] = test system: giant foxtail (Setaria faberii); details: Setaria faberi, pre-emergence, 240 h; for pest or weed control at 125 g/ha: 125 g ai/ha; for pest or weed control at 500 g/ha: 500 g ai/ha
# Procedure, shortened: as §1
# [4] = test system: pigweed (Amaranthus retroflexus); details: Amaranthus retroflexus, pre-emergence, 240 h; for pest or weed control at 125 g/ha: 125 g ai/ha; for pest or weed control at 500 g/ha: 500 g ai/ha
# [5] = preemergence, 0 to 100 scale where 0 is no effect and 100 is complete control, read-out: Ryegrass, Italian plant response rating
# [6] = preemergence, visual injury rating about 10 d after treatment, 0 to 100 scale (0 no effect, 100 complete control), read-out: Ryegrass, Italian plant response rating
# [7] = preemergence, 0 to 100 scale where 0 is no effect and 100 is complete control, read-out: Kochia plant response rating
# [8] = preemergence, visual injury rating about 10 d after treatment, 0 to 100 scale (0 no effect, 100 complete control), read-out: Kochia plant response rating
# [9] = preemergence, 0 to 100 scale where 0 is no effect and 100 is complete control, read-out: Ragweed plant response rating
# [10] = preemergence, visual injury rating about 10 d after treatment, 0 to 100 scale (0 no effect, 100 complete control), read-out: Ragweed plant response rating
# [11] = preemergence, 0 to 100 scale where 0 is no effect and 100 is complete control, read-out: Foxtail, Giant plant response rating
# [12] = preemergence, visual injury rating about 10 d after treatment, 0 to 100 scale (0 no effect, 100 complete control), read-out: Foxtail, Giant plant response rating
# [13] = preemergence, 0 to 100 scale where 0 is no effect and 100 is complete control, read-out: Pigweed plant response rating
# [14] = preemergence, visual injury rating about 10 d after treatment, 0 to 100 scale (0 no effect, 100 complete control), read-out: Pigweed plant response rating
# [15] = Preemergence, visual injury vs untreated controls after approximately 10 d, read-out: Ryegrass, Italian plant response rating (0 to 100 scale where 0 is no effect and 100 is complete control)
# [16] = Preemergence, visual injury vs untreated controls after approximately 10 d, read-out: Kochia plant response rating (0 to 100 scale where 0 is no effect and 100 is complete control)
# [17] = Preemergence, visual injury vs untreated controls after approximately 10 d, read-out: Ragweed plant response rating (0 to 100 scale where 0 is no effect and 100 is complete control)
# [18] = Preemergence, visual injury vs untreated controls after approximately 10 d, read-out: Foxtail, Giant plant response rating (0 to 100 scale where 0 is no effect and 100 is complete control)
# [19] = Preemergence, visual injury vs untreated controls after approximately 10 d, read-out: Pigweed plant response rating (0 to 100 scale where 0 is no effect and 100 is complete control)
Compound,"pest or weed control at 125 g/ha [1, 5]","pest or weed control at 500 g/ha [1, 6]",pest or weed control at 125 g/ha (Kochia (Kochia scoparia); [7]),pest or weed control at 500 g/ha (Kochia (Kochia scoparia); [8]),"pest or weed control at 125 g/ha [2, 9]","pest or weed control at 500 g/ha [2, 10]","pest or weed control at 125 g/ha [3, 11]","pest or weed control at 500 g/ha [3, 12]","pest or weed control at 125 g/ha [4, 13]","pest or weed control at 500 g/ha [4, 14]","pest or weed control at 500 g/ha [1, 15]",pest or weed control at 500 g/ha (Kochia (Kochia scoparia); [16]),"pest or weed control at 500 g/ha [2, 17]","pest or weed control at 500 g/ha [3, 18]","pest or weed control at 500 g/ha [4, 19]","pest or weed control at 125 g/ha ([1]; Preemergence, visual injury rating after approximately 10 d, read-out: Ryegrass, Italian plant response rating (0 to 100 scale, 0 is no effect, 100 is complete control))","pest or weed control at 125 g/ha (Kochia (Kochia scoparia); Preemergence, visual injury rating after approximately 10 d, read-out: Kochia plant response rating (0 to 100 scale, 0 is no effect, 100 is complete control))","pest or weed control at 125 g/ha ([2]; Preemergence, visual injury rating after approximately 10 d, read-out: Ragweed plant response rating (0 to 100 scale, 0 is no effect, 100 is complete control))","pest or weed control at 125 g/ha ([3]; Preemergence, visual injury rating after approximately 10 d, read-out: Foxtail, Giant plant response rating (0 to 100 scale, 0 is no effect, 100 is complete control))","pest or weed control at 125 g/ha ([4]; Preemergence, visual injury rating after approximately 10 d, read-out: Pigweed plant response rating (0 to 100 scale, 0 is no effect, 100 is complete control))"
Cc1cc([C@H]2CN(C)C(=O)[C@@H]2C(=O)Nc2ccccc2F)ccc1Cl [Compound 928],40%,70%,80%,80%,0%,0%,90%,90%,0%,20%,,,,,,,,,,
COc1cc([C@H]2CN(C)C(=O)[C@@H]2C(=O)Nc2cccc(F)c2F)cc(C(F)(F)F)c1 [Compound 856],50%,,40%,,0%,,90%,,20%,,80%,50%,20%,90%,50%,,,,,
CC(=O)Oc1ccc(F)c(NC(=O)[C@H]2C(=O)N(C)C[C@@H]2c2cc(F)cc(F)c2)c1 [Compound 1019],,0%,,0%,,0%,,0%,,0%,,,,,,0%,0%,0%,0%,0%
CSc1ccccc1NC(=O)[C@H]1C(=O)N(C)C[C@@H]1c1cccc(COC(F)F)c1 [Compound 876],0%,,0%,,0%,,80%,,0%,,30%,70%,80%,100%,30%,,,,,
CCOc1ccc([C@H]2CNC(=O)[C@@H]2C(=O)Nc2ccc(F)cc2F)cc1 [Compound 908],0%,,0%,,0%,,30%,,0%,,0%,0%,0%,80%,0%,,,,,
CC(C)c1cccc([C@H]2CN(C)C(=O)[C@@H]2C(=O)Nc2ccccc2F)c1 [Compound 819],80%,,70%,,0%,,100%,,30%,,100%,100%,20%,100%,30%,,,,,
Cc1cc(F)cc([C@H]2CNC(=O)[C@@H]2C(=O)Nc2ccc(F)c(F)c2F)c1 [Compound 848],40%,,40%,,0%,,90%,,40%,,50%,70%,30%,90%,50%,,,,,
